# Experimental data taken from patent US11046699B2, “Pyrazolo-pyrimidin-amino-cycloalkyl compounds and their therapeutic uses” (RAPT THERAPEUTICS, INC., priority 2018, dated 2021).
# Counter-ions that a name gives are not always drawn.
# Target: GCN2 (Homo sapiens, UniProt Q9P2K8)
# Test: GCN2 enzymatic endpoint assay: phosphorylation of GFP-eIF2α measured by TR-FRET (Lanthascreen)
# Assay type: biochemical
# Conditions: GCN2 biochemical IC50; 4 nM GCN2, 2 μM ATP, 80 nM GFP-eIF2α, 90 min RT; read-out: GCN2 activity
# Procedure, shortened: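 2 μM ATP, 80 nM GFP-eIF2α, RT, 90 min; EDTA stop. Tb-anti-phospho antibody TR-FRET read, 520/495 nm ratio.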
# GCN2, sequence (Q9P2K8 whole entry): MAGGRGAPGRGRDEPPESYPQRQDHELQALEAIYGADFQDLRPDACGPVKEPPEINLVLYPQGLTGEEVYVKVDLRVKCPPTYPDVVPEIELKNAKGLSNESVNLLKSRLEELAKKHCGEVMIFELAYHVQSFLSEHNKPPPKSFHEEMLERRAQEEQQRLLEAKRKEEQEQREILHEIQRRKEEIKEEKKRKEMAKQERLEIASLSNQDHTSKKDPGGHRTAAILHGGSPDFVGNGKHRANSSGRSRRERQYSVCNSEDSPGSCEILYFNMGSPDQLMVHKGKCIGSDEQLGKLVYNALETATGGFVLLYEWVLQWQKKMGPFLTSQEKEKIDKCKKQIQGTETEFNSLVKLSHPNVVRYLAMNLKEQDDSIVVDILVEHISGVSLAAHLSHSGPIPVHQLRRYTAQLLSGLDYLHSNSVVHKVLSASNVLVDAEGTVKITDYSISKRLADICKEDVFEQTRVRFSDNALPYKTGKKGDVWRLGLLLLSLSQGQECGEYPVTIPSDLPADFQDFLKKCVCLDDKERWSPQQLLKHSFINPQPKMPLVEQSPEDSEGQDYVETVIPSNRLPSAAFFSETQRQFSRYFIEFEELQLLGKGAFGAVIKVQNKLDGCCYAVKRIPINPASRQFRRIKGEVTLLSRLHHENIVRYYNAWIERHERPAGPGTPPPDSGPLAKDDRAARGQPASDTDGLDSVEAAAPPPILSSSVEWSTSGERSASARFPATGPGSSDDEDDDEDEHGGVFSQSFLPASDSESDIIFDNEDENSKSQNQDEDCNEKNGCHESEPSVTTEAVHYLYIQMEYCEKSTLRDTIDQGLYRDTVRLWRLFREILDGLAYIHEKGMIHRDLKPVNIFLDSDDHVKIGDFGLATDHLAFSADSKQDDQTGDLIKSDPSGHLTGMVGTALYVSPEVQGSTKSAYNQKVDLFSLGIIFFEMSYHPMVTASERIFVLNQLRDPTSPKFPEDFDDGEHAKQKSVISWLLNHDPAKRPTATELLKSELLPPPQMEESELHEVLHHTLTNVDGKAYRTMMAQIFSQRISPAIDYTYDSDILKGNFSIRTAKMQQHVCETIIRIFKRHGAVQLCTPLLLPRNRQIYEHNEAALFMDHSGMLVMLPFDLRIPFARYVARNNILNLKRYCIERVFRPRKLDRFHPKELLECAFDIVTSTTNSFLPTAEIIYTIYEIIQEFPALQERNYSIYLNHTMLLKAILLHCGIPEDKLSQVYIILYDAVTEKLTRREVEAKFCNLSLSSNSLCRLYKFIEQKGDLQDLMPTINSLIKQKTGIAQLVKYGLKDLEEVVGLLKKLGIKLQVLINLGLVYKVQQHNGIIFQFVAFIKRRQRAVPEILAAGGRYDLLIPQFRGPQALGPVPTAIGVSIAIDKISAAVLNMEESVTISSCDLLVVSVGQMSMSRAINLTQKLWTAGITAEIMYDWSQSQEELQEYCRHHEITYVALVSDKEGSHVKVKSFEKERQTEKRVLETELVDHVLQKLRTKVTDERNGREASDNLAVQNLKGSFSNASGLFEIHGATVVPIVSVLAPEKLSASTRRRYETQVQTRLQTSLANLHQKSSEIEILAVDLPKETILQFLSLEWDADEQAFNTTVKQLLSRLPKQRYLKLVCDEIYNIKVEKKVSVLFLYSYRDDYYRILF
row,IC50 [nM],SMILES
1,25 to 200,"CNC(=O)[C@]1(CC#N)CC[C@@H](Nc2ncc3c(Br)nn(-c4cc(F)c5ncccc5c4)c3n2)C1 (single isomer, unassigned) [Example 19]"
2,25 to 200,"CNC(=O)[C@]1(C)CC[C@@H](Nc2ncc3c(Br)nn(-c4ccc(N5CCOCC5)c(C#N)c4)c3n2)C1 [Example 59, (1R,3R)-3-((3-bromo-1-(3-cyano-4-morpholinophenyl)-1H-pyrazolo[3,4-d]pyrimidin-6-yl)amino)-N,1-dimethylcyclopentane-1-carboxamide hydrochloride]"

# Same assay, conditions: tested as described in Example 77; compound and/or hydrochloride, dihydrochloride or trifluoroacetic acid salt; read-out: IC 50 Activity
row,IC50 [nM],SMILES
1,25 to 200,"CNC(=O)[C@]1(C)CC[C@@H](Nc2ncc3c(Br)nn(-c4cc(CCCOC)c5c(c4)CCC(=O)N5C)c3n2)C1 [(1R,3R)-3-[[3-bromo-1-[8-(3-methoxy-propyl)-1-methyl-2-oxo-3,4-dihydro-quinolin-6-yl]pyrazolo[3,4-d]pyrimidin-6-yl]amino]-N,1-dimethyl-cyclopentane-carboxamide; 2,2,2-trifluoroacetic acid]"
2,< 25,"CNC(=O)[C@]1(C)CC[C@@H](Nc2ncc3c(Br)nn(-c4ccc5nccc(OC)c5c4)c3n2)C1 [(1R,3R)-3-[[3-bromo-1-(4-methoxy-6-quinolyl)pyrazolo[3,4-d]pyrimidin-6-yl]amino]-N,1-dimethyl-cyclopentanecarboxamide]"
3,< 25,"CC1(C(=O)N2CC3CCC(C2)O3)CC[C@@H](Nc2ncc3c(Br)nn(-c4cc(F)c5ncccc5c4)c3n2)C1 (stereo partly drawn) [[(3R)-3-[[3-bromo-1-(8-fluoro-6-quinolyl)pyrazolo[3,4-d]pyrimidin-6-yl]amino]-1-methyl-cyclopentyl]-(8-oxa-3-azabicyclo [3.2.1]octan-3-yl)methanone]"
4,25 to 200,N#Cc1cc(-n2nc(Br)c3cnc(N[C@@H]4CC[C@@H](C(=O)NC5CCC(C#N)C5)C4)nc32)cc2cccnc12 (stereo partly drawn)
5,25 to 200,"N#Cc1cc(-n2nc(Br)c3cnc(N[C@@H]4CC[C@@H](C(=O)N5CCN(C(=O)CO)CC5)C4)nc32)cc2cccnc12 [6-(3-bromo-6-(((1R,3R)-3-(4-(2-hydroxyacetyl)piperazine-1-carbonyl)cyclopentyl)amino)-1H-pyrazolo[3,4-d]pyrimidin-1-yl)quinoline-8-carbonitrile]"
6,< 25,"CNC(=O)[C@]1(C)CC[C@@H](Nc2ncc3c(Br)nn(-c4ccc(-c5nnc(C(C)CC#N)o5)cc4)c3n2)C1 (stereo partly drawn) [(1R,3R)-3-[[3-bromo-1-[4-[5-(2-cyano-1-methyl-ethyl)-1,3,4-oxadiazol-2-yl]phenyl]pyrazolo[3,4-d]pyrimidin-6-yl]amino]-N,1-dimethyl-cyclopentanecarboxamide]"
7,< 25,"CNC(=O)C1(C)CC[C@@H](Nc2ncc3c(Br)nn(-c4cc(C#N)c5nccc(C)c5c4)c3n2)C1 (stereo partly drawn) [(3R)-3-[[3-bromo-1-(8-cyano-4-methyl-6-quinolyl)pyrazolo[3,4-d]pyrimidin-6-yl]amino]-N,1-dimethyl-cyclopentane-carboxamide]"
8,25 to 200,N#Cc1cc(-n2nc(Br)c3cnc(N[C@@H]4CC[C@@H](C(=O)N=S5(=O)CCNCC5)C4)nc32)cc2cccnc12
9,25 to 200,"CNC(=O)[C@]1(C)CC[C@@H](Nc2ncc3c(Br)nn(-c4cc(CN5C(=O)CCC5=O)c5ncccc5c4)c3n2)C1 [(1R,3R)-3-[[3-bromo-1-[8-[(2,5-dioxo-pyrrolidin-1-yl)methyl]-6-quinolyl]pyrazolo[3,4-d]pyrimidin-6-yl]amino]-N,1-dimethyl-cyclopentanecarboxamide]"
10,500 to 1000,"COCCNC(=O)[C@@H]1CC[C@@H](Nc2ncc3c(Br)nn(-c4cnc5ccc(F)cc5c4)c3n2)C1 [(1R,3R)-3-((3-bromo-1-(6-fluoroquinolin-3-yl)-1H-pyrazolo[3,4-d]pyrimidin-6-yl)amino)-N-(2-methoxyethyl)cyclopentane-1-carboxamide]"
11,25 to 200,"CNC(=O)[C@]1(C)CC[C@@H](Nc2ncc3c(Br)nn(-c4cc(Cl)cc(CS(C)(=O)=O)c4)c3n2)C1 [(1R,3R)-3-[[3-bromo-1-[3-chloro-5-(methylsulfonylmethyl)phenyl]pyrazolo [3,4-d]pyrimidin-6-yl]amino]-N,1-dimethyl-cyclopentanecarboxamide]"
12,200 to 500,"CS(=O)(=O)N1CC[C@@H](Nc2ncc3c(Br)nn(-c4ccc5ncccc5c4)c3n2)C1 [(R)-3-bromo-N-(1-(methylsulfonyl)pyrrolidin-3-yl)-1-(quinolin-6-yl)-1H-pyrazolo[3,4-d] pyrimidin-6-amine]"
13,< 25,"CC1(C(=O)N2CCOCC2)CC[C@@H](Nc2ncc3c(Br)nn(-c4cc(F)c5ncccc5c4)c3n2)C1 (stereo partly drawn) [[(3R)-3-[[3-bromo-1-(8-fluoro-6-quinolyl)pyrazolo[3,4-d]pyrimidin-6-yl]amino]-1-methyl-cyclopentyl]-morpholino-methanone]"
14,25 to 200,"CNC(=O)C1(C)CC[C@@H](Nc2ncc3c(Br)nn(-c4ccc(-c5cnn(CCOC)c5)cc4)c3n2)C1 (stereo partly drawn) [(3R)-3-[[3-bromo-1-[4-[1-(2-methoxyethyl)pyrazol-4-yl]phenyl]pyrazolo[3,4-d]pyrimidin-6-yl]amino]-N,1-dimethyl-cyclopentanecarboxamide]"
15,25 to 200,"CNC(=O)[C@]1(C)CC[C@@H](Nc2ncc3c(Br)nn(-c4cnc5c(c4)OCC(=O)N5C)c3n2)C1 [(1R,3R)-3-[[3-bromo-1-(4-methyl-3-oxo-pyrido[3,2-b][1,4]oxazin-7-yl)pyrazolo [3,4-d]pyrimidin-6-yl]amino]-N,1-dimethyl-cyclopentanecarboxamide]"
16,< 25,"CS(=O)(=O)C1CC[C@@H](Nc2ncc3c(Br)nn(-c4cc(CCN)c5nccnc5c4)c3n2)C1 (stereo partly drawn) [1-[8-(2-aminoethyl)quinoxalin-6-yl]-3-bromo-N-[(1R)-3-methylsulfonylcyclo-pentyl]pyrazolo[3,4-d]pyrimidin-6-amine]"
17,< 25,"CNC(=O)[C@]1(C)CC[C@@H](Nc2ncc3c(Br)nn(-c4cc5c(c(OCC(F)F)c4)N(C)C(=O)CO5)c3n2)C1 [(1R,3R)-3-[[3-bromo-1-[5-(2,2-difluoro-ethoxy)-4-methyl-3-oxo-1,4-benzoxazin-7-yl]pyrazolo[3,4-d]pyrimidin-6-yl]amino]-N,1-dimethyl-cyclopentanecarboxamide]"
18,25 to 200,"O=C([C@@H]1CC[C@@H](Nc2ncc3c(Br)nn(-c4cc(F)c5ncccc5c4)c3n2)C1)n1ccc(C(F)(F)F)n1 [((1R,3R)-3-((3-bromo-1-(8-fluoroquinolin-6-yl)-1H-pyrazolo[3,4-d]pyrimidin-6-yl)amino)cyclopentyl)(3-(trifluoromethyl)-1H-pyrazol-1-yl)methanone]"
19,25 to 200,"CNC(=O)[C@]1(C)CC[C@@H](Nc2ncc3c(Br)nn(-c4cc(CNCCOC)c5ncccc5c4)c3n2)C1 [(1R,3R)-3-[[3-bromo-1-[8-[(2-methoxy-ethylamino)methyl]-6-quinolyl]pyrazolo [3,4-d]pyrimidin-6-yl]amino]-N,1-dimethyl-cyclopentanecarboxamide]"
20,200 to 500,"COCCNC(=O)[C@@H]1CC[C@@H](Nc2ncc3c(Br)nn(-c4ccc(-n5cccn5)cc4)c3n2)C1 [(1R,3R)-3-((1-(4-(1H-pyrazol-1-yl)phenyl)-3-bromo-1H-pyrazolo[3,4-d]pyrimidin-6-yl)amino)-N-(2-methoxyethyl)cyclopentane-1-carboxamide]"
21,< 25,"O=C([C@@H]1CC[C@@H](Nc2ncc3c(Br)nn(-c4cc(F)c5ncccc5c4)c3n2)C1)N1CCC2(CNC2)C(F)(F)C1 [[(1R,3R)-3-[[3-bromo-1-(8-fluoro-6-quinolyl)pyrazolo[3,4-d]pyrimidin-6-yl]amino]cyclo-pentyl]-(5,5-difluoro-2,7-diazaspiro[3.5]nonan-7-yl)methanone]"
22,25 to 200,"CNC(=O)[C@]1(C)CC[C@@H](Nc2ncc3c(Br)nn(-c4ccc(OCC#N)cc4)c3n2)C1 [(1R,3R)-3-[[3-bromo-1-[4-(cyanomethoxy)phenyl]pyrazolo[3,4-d]pyrimidin-6-yl]amino]-N,1-dimethyl-cyclopentane-carboxamide]"
23,25 to 200,"C[C@]1(C(=O)NCCO)CC[C@@H](Nc2ncc3c(Br)nn(-c4cc(F)c5ncccc5c4)c3n2)C1 [(1S,3R)-3-[[3-bromo-1-(8-fluoro-6-quinolyl)pyrazolo[3,4-d]pyrimidin-6-yl]amino]-N-(2-hydroxyethyl)-1-methyl-cyclopentane-carboxamide]"
24,25 to 200,"CNC(=O)[C@]1(C)CC[C@@H](Nc2ncc3c(Br)nn(-c4ccc(-c5ncco5)c(CCN5CCOCC5)c4)c3n2)C1 [(1R,3R)-3-[[3-bromo-1-[3-(2-morpholino-ethyl)-4-oxazol-2-yl-phenyl]pyrazolo [3,4-d]pyrimidin-6-yl]amino]-N,1-dimethyl-cyclopentanecarboxamide]"
25,25 to 200,"CNC(=O)[C@]1(C)CC[C@@H](Nc2ncc3c(Br)nn(-c4cccc(NC(=O)c5ccn[nH]5)c4)c3n2)C1 [N-[3-[3-bromo-6-[[(1R,3R)-3-methyl-3-(methylcarbamoyl)cyclopentyl]amino]pyrazolo[3,4-d]pyrimidin-1-yl]phenyl]-1H-pyrazole-5-carboxamide]"
26,25 to 200,"CNC(=O)[C@]1(C)CC[C@@H](Nc2ncc3c(Br)nn(-c4cc(F)c5nc(C)cc(O)c5c4)c3n2)C1 [(1R,3R)-3-[[3-bromo-1-(8-fluoro-4-hydroxy-2-methyl-6-quinolyl)pyrazolo[3,4-d]pyrimidin-6-yl]amino]-N,1-dimethyl-cyclopentanecarboxamide]"
27,25 to 200,"CNC(=O)[C@]1(C)CC[C@@H](Nc2ncc3c(Br)nn(-c4ccc(-c5cnn(C)c5C#N)cc4)c3n2)C1 [(1R,3R)-3-[[3-bromo-1-[4-(5-cyano-1-methyl-pyrazol-4-yl)phenyl]pyrazolo[3,4-d]pyrimidin-6-yl]amino]-N,1-dimethyl-cyclopentane-carboxamide]"

row,SMILES,IC50 [nM]
1,Cc1nnc(-c2ccc(-n3nc(Br)c4cnc(N[C@@H]5CCC6(CC(=O)N(C)C6=O)C5)nc43)cc2)s1 (stereo partly drawn),< 25
2,CNC(=O)CCC1(C#N)CC[C@@H](Nc2ncc3c(Br)nn(-c4ccc(-c5nnc(C)s5)cc4)c3n2)C1 (stereo partly drawn),< 25
3,C[C@H](N)c1cc(Cl)cc(-n2nc(Br)c3cnc(N[C@@H]4CC[C@@](C)(C#N)C4)nc32)c1,25 to 200
4,CNC(=O)[C@]1(C#N)CC[C@@H](Nc2ncc3c(Br)nn(-c4ccc(-c5nnc(C)s5)cc4)c3n2)C1,25 to 200
